The results in this text go back to patent US20060166892A1, “Treatment of cell proliferative disorders with chlorotoxin” (priority 2002, published 2006).

Assay [1] has as its system PC3 prostate cancer cells. Kind of assay: Binding of biotinylated peptides to PC3 cells, HRP-avidin detection. Also on record: species or system human. As to conditions: chlorotoxin binding assay, FIG. 11. The method, then:
To identify core binding site sequences of chlorotoxin, twenty-seven overlapping 10-mers derived from SEQ 1) NO: 1 were synthesized, starting from the C-terminus of the peptide as indicated in FIG. 7.
Binding of the 10-mer peptides to PC3 prostate cancer cells in vitro was measured by incubating cultured PC3 cells with individual peptides. Binding was detected and quantified by incubating the peptide exposed cells with HRP-avidin using a commercial kit according to manufacturer's instructions.
(SEQ ID NO: 10) sequentially as depicted in Table 5.
In order to compare binding of the short scorpion toxins, the regions homologous to peptide 21 of small toxin and probable toxin LQH-8/6 were synthesized and biotinylated for analysis in the chlorotoxin binding assay. (See Table 6 for amino acid sequences of the peptides).

The test system of assay [2] is D54MG Glioblastoma cells. To be noted: 24 h. The method, then:
The purpose of this experiment was to determine if the proliferation D54MG Glioblastoma cells, as measured by ^3H-thymidine uptake, is effected by Peptide 21, a segment of the full chlorotoxin sequence. The sequence of peptide 21 and its relation to chlorotoxin is shown in the sequence below:
D54MG cells were plated in a 24 well plate at 100,000 cells/ml/well using five rows of four wells for each concentration. The cells were allowed to adhere in normal media for twenty-four hours at 37° C. and 5% carbon dioxide. TM-701 was diluted to a […] stock solution and added to each row at the concentrations of 0, 20, 80, 160 and 320 nM.
The cells and peptide 21 were allowed to incubate for 24 hours at 37° C. and 5% carbon dioxide. After twenty-four hours, the cells were rinsed two times with warm PBS. Normal media was added back to the cells at 1 ml/well. One μCi of ^3H-thymidine was added to each well (1 μl of 1 mCi/ml ^3H-thymidine to each well). The plate was incubated for two hours at 37° C. The media and thymidine were removed and the wells were rinsed with ice-cold phosphate-buffered saline three times. To each well was added 1 ml of 0.3 N NaOH. The plate was incubated in the 37° C. incubator for thirty minutes. Each well of 0.3 N NaOH was pipetted up and down three to four times and removed from the plate and the solution was placed in scintillation vials for counting. Scintillation fluid at four times the amount of sample was added to the vials (4 ml). Each vial was counted on the scintillation counter for one minute.

Where two headings read alike, the source gives them in different places. Ends that are not written are not given here. * marks the point of attachment. Biotin = O=C1N[C@H]2[C@H](CS[C@H]2CCCCC(=O)*)N1

Regarding Biotin-TTDHQMARKS [peptide 21], the “binding in PC3 human prostate cancer cells” value (from here on “binding”) in assay [1] is 232.50 % of background levels. In addition, the “uptake of 3H-thymidine, trend over 20 to 320 nM” value in assay [2] (FIG. 12) is “decreases in a does-dependent manner”. Also, the “3H-Thymidine uptake ± SD” value in assay [2] (peptide 21 at 20 nM) is on record as 7795 ± 634 CPM; in assay [2] (peptide 21 at 80 nM), 7412 ± 630 CPM; in assay [2] (peptide 21 at 160 nM), 6983 ± 329 CPM; in assay [2] (peptide 21 at 320 nM), 5782 ± 886 CPM.

Take “TTDPQMSKK [21ST, region of small toxin homologous to peptide 21, synthesized and biotinylated]”: in assay [1], the “binding” value is on record as 225.26 % of background levels.

“TTDQQMTKK [21LQ, region of probable toxin LQH-8/6 homologous to peptide 21, synthesized and biotinylated]”: in assay [1], the “binding” value is 242.32 % of background levels.

Take “negative peptide (GKCYGPQCLC; Chlorotoxin; listed as Leiurus quinquestriatus) [reference compound]”: the “binding” value in assay [1] is reported as 110 % of background levels.
